≈ marks a conversion by molar mass, not a printed value.
What was measured:
[1] = Apparent permeability coefficient of the compound across apical to basolateral side in dog MDCK cells by high-throughput analysis; format: ADME, cell-based, Canis lupus familiaris
[2] = Plasma protein binding in human assessed as unbound fraction; format: ADME, cell-free
[3] = Plasma protein binding in rat assessed as unbound fraction; format: ADME, cell-free
[4] = Plasma protein binding in dog assessed as unbound fraction; format: ADME, cell-free, Canis lupus familiaris
[5] = Inhibition of biotinylated human IL-17A/AF647-labeled human IL-17RA protein-protein interaction preincubated for 30 mins with compound followed by addition of AF647-labeled human IL-17RA incubated for 90 min by TR-FRET assay
[6] = Inhibition of IL-6 production in IL-17/TNF-alpha stimulated human NHDF cells incubated for 24 hrs by ELISA; format: functional, cell-based
[7] = Lipophilicity, logD of compound at pH 7.4; format: physicochemical; settings: buffer
[8] = Equilibrium solubility of compound […] at pH 6.8 by high-throughput analysis; format: physicochemical
[9] = Metabolic stability in rat liver microsomes assessed as intrinsic clearance; format: ADME, Microsome; settings: read-out: CLH
[10] = Metabolic stability in human liver microsomes assessed as intrinsic clearance; format: ADME, Microsome; settings: read-out: CLH
[11] = AUC in Sprague-Dawley rat at 3 mg/kg,po measured upto 24 hrs by LC-MS/MS analysis; format: ADME, organism-based; settings: in vivo, po, 3 mg/kg, 24 h
[12] = Oral bioavailability in Sprague-Dawley rat at 3 mg/kg measured upto 24 hrs by LC-MS/MS analysis; format: ADME, organism-based; settings: in vivo, po, 3 mg/kg, 24 h
[13] = Metabolic stability in mouse liver microsomes assessed as intrinsic clearance; format: ADME, Microsome; settings: read-out: CLH
[14] = Metabolic stability in rat hepatocyte assessed as clearance measured per million cells; format: ADME, cell-based; settings: hepatocytes
[15] = Metabolic stability in dog hepatocyte assessed as clearance measured per million cells; format: ADME, cell-based, Canis lupus familiaris; settings: hepatocytes
[16] = Metabolic stability in dog liver microsomes assessed as intrinsic clearance; format: ADME, Canis lupus familiaris, Microsome; settings: read-out: CLH
[17] = Metabolic stability in human hepatocyte assessed as clearance measured per million cells; format: ADME, cell-based; settings: hepatocytes
[18] = Plasma protein binding in mouse assessed as unbound fraction; format: ADME, cell-free
[19] = Volume of distribution at steady state in C57BL/6 mouse at 1 mg/kg,iv or 3 mg/kg,po measured upto 24 hrs by LC-MS/MS analysis; format: ADME, organism-based; settings: in vivo, read-out: Vdss
[20] = Volume of distribution at steady state in Sprague-Dawley rat at 1 mg/kg,iv or 3 mg/kg,po measured upto 24 hrs by LC-MS/MS analysis; format: ADME, organism-based; settings: in vivo, read-out: Vdss
[21] = Volume of distribution at steady state in Beagle dog at 0.1 mg/kg,iv or 0.3 mg/kg,po measured upto 24 hrs by LC-MS/MS analysis; format: ADME, organism-based, Canis lupus familiaris; settings: in vivo, read-out: Vdss
[22] = Half life in C57BL/6 mouse at 1 mg/kg,iv or 3 mg/kg,po measured upto 24 hrs by LC-MS/MS analysis; format: ADME, organism-based; settings: in vivo
[23] = Half life in Sprague-Dawley rat at 1 mg/kg,iv or 3 mg/kg,po measured upto 24 hrs by LC-MS/MS analysis; format: ADME, organism-based; settings: in vivo
[24] = Half life in Beagle dog at 0.1 mg/kg,iv or 0.3 mg/kg,po measured upto 24 hrs by LC-MS/MS analysis; format: ADME, organism-based, Canis lupus familiaris; settings: in vivo
[25] = AUClast in C57BL/6 mouse at 3 mg/kg,po measured upto 24 hrs by LC-MS/MS analysis; format: ADME, organism-based; settings: in vivo
[26] = AUClast in Sprague-Dawley rat at 3 mg/kg,po measured upto 24 hrs by LC-MS/MS analysis; format: ADME, organism-based; settings: in vivo
[27] = AUClast in Beagle dog at 0.3 mg/kg,po measured upto 24 hrs by LC-MS/MS analysis; format: ADME, organism-based, Canis lupus familiaris; settings: in vivo
[28] = Oral bioavailability in C57BL/6 mouse at 3 mg/kg measured upto 24 hrs by LC-MS/MS analysis; format: ADME, organism-based; settings: in vivo
[29] = Oral bioavailability in Beagle dog at 0.3 mg/kg measured upto 24 hrs by LC-MS/MS analysis; format: ADME, organism-based, Canis lupus familiaris; settings: in vivo
Rattus norvegicus [30] = experiment: Antiarthritic activity in antigen-induced arthritis Lewis rat model assessed as reduction in knee swelling at po bid administrated for 4 days; format: functional, organism-based; settings: time 4.0 day
Rattus norvegicus [31] = experiment: Antiarthritic activity in antigen-induced arthritis Lewis rat model assessed as reduction in knee swelling at 1 mg/kg,po bid administrated for 4 days; format: functional; design: scale not given: the % may be the effect or the level left; settings: time 4 day
Rattus norvegicus [32] = experiment: Antiarthritic activity in antigen-induced arthritis Lewis rat model assessed as reduction in knee swelling at 30 mg/kg,po bid administrated for 4 days; format: functional; design: scale not given: the % may be the effect or the level left; settings: time 4 day
[33] = Inhibition of CXCL1 production in IL-17A stimulated rat IEC-6 cells; format: functional
[34] = Inhibition of CXCL1 production in IL-17A stimulated rat IEC-6 cells assessed as fold change in inhibition of CXCL1 release; format: functional
[35] = molecular target: T1, Muscarinic acetylcholine receptor M2 (Homo sapiens, UniProt P08172); experiment: Inhibition of muscarinic M2 receptor (unknown origin); format: toxicity
T1 sequence (P08172 whole entry): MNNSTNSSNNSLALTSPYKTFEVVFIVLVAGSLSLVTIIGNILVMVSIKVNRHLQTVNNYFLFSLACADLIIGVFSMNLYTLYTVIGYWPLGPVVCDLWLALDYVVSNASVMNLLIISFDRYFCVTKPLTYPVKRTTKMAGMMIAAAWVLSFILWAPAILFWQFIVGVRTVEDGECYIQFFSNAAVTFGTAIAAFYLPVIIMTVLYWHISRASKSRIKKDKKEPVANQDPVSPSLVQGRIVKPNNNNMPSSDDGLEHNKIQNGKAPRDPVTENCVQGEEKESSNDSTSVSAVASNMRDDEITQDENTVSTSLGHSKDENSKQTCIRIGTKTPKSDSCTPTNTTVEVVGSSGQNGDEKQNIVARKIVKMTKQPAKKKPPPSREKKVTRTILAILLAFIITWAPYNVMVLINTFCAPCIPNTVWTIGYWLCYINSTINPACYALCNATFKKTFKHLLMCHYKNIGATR

Bile salt export pump = Bile salt export pump (Homo sapiens, UniProt O95342); experiment: Inhibition of BSEP (unknown origin); format: toxicity
[36] = molecular target: T2, Solute carrier organic anion transporter family member 1B1 (Homo sapiens, UniProt Q9Y6L6); experiment: Inhibition of OATP1B1 (unknown origin); format: toxicity
T2 sequence (Q9Y6L6 whole entry): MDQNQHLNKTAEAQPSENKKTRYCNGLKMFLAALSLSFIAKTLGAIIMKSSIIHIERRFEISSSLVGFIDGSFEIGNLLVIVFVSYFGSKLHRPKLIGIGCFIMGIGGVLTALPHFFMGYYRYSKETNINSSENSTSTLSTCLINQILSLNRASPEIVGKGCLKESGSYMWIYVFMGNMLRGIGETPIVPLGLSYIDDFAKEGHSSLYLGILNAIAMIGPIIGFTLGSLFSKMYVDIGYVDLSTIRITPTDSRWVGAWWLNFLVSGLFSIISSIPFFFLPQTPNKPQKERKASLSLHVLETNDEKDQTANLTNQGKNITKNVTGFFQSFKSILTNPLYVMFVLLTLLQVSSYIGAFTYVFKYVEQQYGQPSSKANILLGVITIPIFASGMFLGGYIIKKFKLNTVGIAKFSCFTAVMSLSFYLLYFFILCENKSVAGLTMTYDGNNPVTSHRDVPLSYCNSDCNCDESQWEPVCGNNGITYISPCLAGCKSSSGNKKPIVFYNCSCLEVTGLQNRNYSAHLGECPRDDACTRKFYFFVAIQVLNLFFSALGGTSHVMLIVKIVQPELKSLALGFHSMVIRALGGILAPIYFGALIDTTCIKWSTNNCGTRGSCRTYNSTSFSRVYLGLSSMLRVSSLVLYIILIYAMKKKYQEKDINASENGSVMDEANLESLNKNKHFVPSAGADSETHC

[37] = Toxicity in rat assessed as maximal tolerated dose administrated for 2 weeks; settings: in vivo
[38] = Toxicity in dog assessed as maximal tolerated dose administrated for 2 weeks; design: species or system Canis lupus familiaris; settings: in vivo
[39] = Toxicity in dog at >=200 mg/kg,administrated for 2 weeks; format: organism-based, Canis lupus familiaris; settings: in vivo, 336 h
[40] = Testicular toxicity in rat at >=100 mg/kg administration for 2 weeks; format: organism-based; settings: in vivo, 336 h
[41] = Testicular toxicity in dog >=75 mg/kg administration for 2 weeks; format: organism-based, Canis lupus familiaris; settings: in vivo, 336 h
[42] = Toxicity in dog assessed as morphological change in liver at 200 mg/kg administrated for 2 weeks; format: organism-based, Canis lupus familiaris; settings: in vivo, 336 h
[43] = Toxicity in dog assessed as increase in serum liver enzyme at 200 mg/kg administrated for 2 weeks; format: organism-based, Canis lupus familiaris; settings: in vivo, 336 h
[44] = GSH reactivity in aqueous buffer at pH 7.4 assessed as GSH-adduct formation by measuring half life; format: physicochemical

Bile salt export pump, sequence (O95342 whole entry): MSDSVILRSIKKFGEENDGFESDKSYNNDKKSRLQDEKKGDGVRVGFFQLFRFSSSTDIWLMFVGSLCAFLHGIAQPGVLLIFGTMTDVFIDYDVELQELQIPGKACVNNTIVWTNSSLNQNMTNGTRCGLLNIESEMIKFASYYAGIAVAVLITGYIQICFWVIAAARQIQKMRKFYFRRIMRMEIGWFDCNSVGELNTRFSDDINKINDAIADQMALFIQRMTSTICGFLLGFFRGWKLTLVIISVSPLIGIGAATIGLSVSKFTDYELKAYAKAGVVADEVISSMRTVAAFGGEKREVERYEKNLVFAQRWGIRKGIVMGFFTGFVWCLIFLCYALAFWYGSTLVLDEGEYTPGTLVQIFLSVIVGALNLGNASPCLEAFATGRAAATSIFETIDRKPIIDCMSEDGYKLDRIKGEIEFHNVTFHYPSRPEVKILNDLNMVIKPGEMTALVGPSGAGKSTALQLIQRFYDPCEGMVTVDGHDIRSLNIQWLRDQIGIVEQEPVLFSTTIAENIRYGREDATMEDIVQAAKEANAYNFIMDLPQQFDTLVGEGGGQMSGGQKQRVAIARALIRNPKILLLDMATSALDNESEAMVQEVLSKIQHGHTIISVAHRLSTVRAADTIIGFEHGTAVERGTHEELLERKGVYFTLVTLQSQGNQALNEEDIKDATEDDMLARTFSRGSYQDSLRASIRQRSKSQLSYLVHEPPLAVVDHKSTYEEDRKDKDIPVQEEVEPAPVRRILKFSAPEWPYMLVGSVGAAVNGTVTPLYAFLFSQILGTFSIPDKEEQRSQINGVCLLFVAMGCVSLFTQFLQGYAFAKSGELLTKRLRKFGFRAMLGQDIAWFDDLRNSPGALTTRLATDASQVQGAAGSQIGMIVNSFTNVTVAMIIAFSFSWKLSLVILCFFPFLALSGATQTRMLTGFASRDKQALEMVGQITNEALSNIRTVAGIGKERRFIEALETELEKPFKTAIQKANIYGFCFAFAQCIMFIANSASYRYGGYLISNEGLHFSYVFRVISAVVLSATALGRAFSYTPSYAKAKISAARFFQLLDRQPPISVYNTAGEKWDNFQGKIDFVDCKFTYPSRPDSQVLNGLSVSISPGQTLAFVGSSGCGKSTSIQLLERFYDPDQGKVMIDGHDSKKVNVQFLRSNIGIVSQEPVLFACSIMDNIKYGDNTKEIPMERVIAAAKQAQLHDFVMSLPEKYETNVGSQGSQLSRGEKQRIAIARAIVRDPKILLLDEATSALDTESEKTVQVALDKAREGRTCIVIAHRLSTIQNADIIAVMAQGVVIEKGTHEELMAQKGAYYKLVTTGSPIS

## COC[C@H](c1cnn2cc([C@@H](NC(=O)/C(F)=C\C3CC3)C3CCC(F)(F)CC3)nc2c1)N1C[C@@H](C(F)(F)F)NC1=O
[1]
  Papp A→B: 26 ×10⁻⁶ cm/s
[2]
  fraction unbound: 0.094
[3]
  fraction unbound: 0.075
[4]
  fraction unbound: 0.062
[5]
  IC50: 13 nM
[6]; 24 h
  IC50: 4 nM
[6]; time 24 hrs
  IC90: 37 nM
[7]
  logD: 3.8
[8]
  solubility: 150 µM (≈ 88.3 µg/mL)
[9]
  microsomal CLint: 38 µL/min/mg
[10]
  microsomal CLint: 58 µL/min/mg
[11]
  AUC: 0.024 µM·h
[12]
  F: 106%
[13]
  microsomal CLint: 25 µL/min/mg
[14]
  CLH: 4.2 µL
[15]
  CLH: 5.1 µL
[16]
  microsomal CLint: 18 µL/min/mg
[17]
  CLH: 58 µL
[18]
  fraction unbound: 0.048
[19]
  Vd: 3 L/kg
[20]
  Vd: 4.4 L/kg
[21]
  Vd: 3.7 L/kg
[22]
  half-life: 2 h
[23]
  half-life: 2.6 h
[24]
  half-life: 8.3 h
[25]
  AUClast: 0.53 µM·h
[26]
  AUC(0-t) at 24 h: 1.58 µM·h
[27]
  AUClast: 4.2 µM·h
[28]
  F: 41%
[29]
  F: 94%
Rattus norvegicus [30]
  Activity: Dose-Dependent Effect
Rattus norvegicus [31]
  Activity: 60%
Rattus norvegicus [32]
  Activity: 97%
[33]
  IC90: 45 nM
[34]
  fold change (FC): 9
[35]
  IC50: 14000 nM
Bile salt export pump
  IC50: 19000 nM
[36]
  IC50: 11000 nM
[37]
  MTD at 336 h: 1000 mg/kg
[38]
  MTD at 336 h: 75 mg/kg
[39]
  Activity: Non-Toxic
[40]
  Activity: Toxic
[41]
  Activity: Toxic
[42]
  Activity: Toxic
[43]
  Activity: Toxic
[44]
  t1/2: > 8 h
